What was measured:
Assay in all cases: Large panel kinase profiling
Type in all cases: biochemical
Details in all cases: 1 μM test article, 1 mM ATP
AAK1 = AAK1 (Homo sapiens, UniProt Q2M2I8)
Procedure, shortened: (§1)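 Profiling across the panel relied on the PhosphoSens CSox-Sensor format. A compound concentration of 1 μM and an ATP level of 1 mM were used throughout.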

CAMK1A = CAMK1A (Homo sapiens, UniProt Q14012)
Procedure, shortened: as §1

CSF1R/FMS = molecular target: T1, CSF1R/FMS (Homo sapiens, UniProt P07333)
T1 construct: AssayQuant Technologies, Inc. (service laboratory)
Procedure, shortened: as §1

INSRR = INSRR (Homo sapiens, UniProt P14616)
Procedure, shortened: as §1

JAK3(JH1) = molecular target: T2, JAK3(JH1) (Homo sapiens, UniProt P52333)
T2 construct: JAK3(JH1)
Procedure, shortened: as §1

LYNA = LYNA (Homo sapiens, UniProt P07948)
Procedure, shortened: as §1

MARK1 = molecular target: T3, MARK1 (Homo sapiens, UniProt Q9P0L2)
T3 construct: AssayQuant Technologies, Inc. (assay service)
Procedure, shortened: as §1

MET = molecular target: T4, MET (Homo sapiens, UniProt P08581)
T4 construct: AssayQuant Technologies, Inc. (assay service)
Procedure, shortened: as §1

MYLK3 = molecular target: T5, MYLK3 (Homo sapiens, UniProt Q32MK0)
T5 construct: AssayQuant Technologies, Inc. (assay service)
T5 sequence (Q32MK0 1-819): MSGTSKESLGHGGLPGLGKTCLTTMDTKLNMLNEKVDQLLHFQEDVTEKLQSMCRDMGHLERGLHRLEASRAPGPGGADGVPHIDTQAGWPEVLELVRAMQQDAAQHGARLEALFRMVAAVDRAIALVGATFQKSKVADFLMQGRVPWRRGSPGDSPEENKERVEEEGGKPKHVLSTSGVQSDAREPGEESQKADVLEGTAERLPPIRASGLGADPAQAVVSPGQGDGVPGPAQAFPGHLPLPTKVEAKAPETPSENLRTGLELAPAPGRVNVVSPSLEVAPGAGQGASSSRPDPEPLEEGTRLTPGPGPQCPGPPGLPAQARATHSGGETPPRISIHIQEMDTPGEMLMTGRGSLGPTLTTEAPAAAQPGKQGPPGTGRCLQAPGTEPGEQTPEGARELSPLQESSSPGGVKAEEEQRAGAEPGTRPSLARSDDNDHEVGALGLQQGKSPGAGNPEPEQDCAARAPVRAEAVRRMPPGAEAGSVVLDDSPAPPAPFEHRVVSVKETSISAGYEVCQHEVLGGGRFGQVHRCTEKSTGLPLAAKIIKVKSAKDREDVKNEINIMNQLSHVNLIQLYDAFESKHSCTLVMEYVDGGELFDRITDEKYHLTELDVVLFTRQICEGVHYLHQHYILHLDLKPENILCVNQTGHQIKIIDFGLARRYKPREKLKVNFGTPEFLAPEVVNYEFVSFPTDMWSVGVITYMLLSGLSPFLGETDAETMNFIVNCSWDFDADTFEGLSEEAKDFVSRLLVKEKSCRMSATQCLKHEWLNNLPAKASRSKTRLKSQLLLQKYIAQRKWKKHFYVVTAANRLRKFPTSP
Procedure, shortened: as §1

PAK3 = PAK3 (Homo sapiens, UniProt O75914)
Procedure, shortened: as §1

PHKG2 = molecular target: T6, PHKG2 (Homo sapiens, UniProt P15735)
T6 sequence (P15735 1-406): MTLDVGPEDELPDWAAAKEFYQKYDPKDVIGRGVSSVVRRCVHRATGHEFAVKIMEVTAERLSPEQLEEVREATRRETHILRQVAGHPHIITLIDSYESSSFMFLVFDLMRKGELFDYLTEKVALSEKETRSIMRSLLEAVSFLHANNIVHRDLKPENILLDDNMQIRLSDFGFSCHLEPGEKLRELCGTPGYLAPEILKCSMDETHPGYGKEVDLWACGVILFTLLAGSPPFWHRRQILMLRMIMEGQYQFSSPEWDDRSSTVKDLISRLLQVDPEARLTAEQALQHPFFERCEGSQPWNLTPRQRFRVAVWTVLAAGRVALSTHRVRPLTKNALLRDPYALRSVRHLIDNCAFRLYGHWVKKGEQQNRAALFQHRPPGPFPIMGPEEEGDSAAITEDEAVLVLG
Procedure, shortened: as §1

PRKG1 = molecular target: T7, PRKG1 (Homo sapiens, UniProt Q13976)
T7 sequence (Q13976 1-671): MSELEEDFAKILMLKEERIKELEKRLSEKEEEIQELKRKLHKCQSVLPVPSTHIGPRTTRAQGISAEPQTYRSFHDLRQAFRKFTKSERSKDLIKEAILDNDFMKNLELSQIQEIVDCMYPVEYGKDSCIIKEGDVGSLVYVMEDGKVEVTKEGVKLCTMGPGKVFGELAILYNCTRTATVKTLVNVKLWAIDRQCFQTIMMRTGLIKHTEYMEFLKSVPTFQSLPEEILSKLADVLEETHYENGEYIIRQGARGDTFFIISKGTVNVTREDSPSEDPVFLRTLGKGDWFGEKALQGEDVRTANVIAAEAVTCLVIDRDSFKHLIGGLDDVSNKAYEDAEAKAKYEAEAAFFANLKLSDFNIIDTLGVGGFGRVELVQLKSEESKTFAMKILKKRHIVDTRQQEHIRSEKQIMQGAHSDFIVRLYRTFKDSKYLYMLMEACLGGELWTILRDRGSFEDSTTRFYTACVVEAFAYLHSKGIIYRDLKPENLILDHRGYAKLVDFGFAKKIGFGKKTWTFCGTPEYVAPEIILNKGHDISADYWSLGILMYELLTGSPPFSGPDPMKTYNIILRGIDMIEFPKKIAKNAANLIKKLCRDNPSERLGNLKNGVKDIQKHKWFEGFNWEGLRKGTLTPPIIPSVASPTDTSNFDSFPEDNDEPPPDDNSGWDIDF
Procedure, shortened: as §1

T4 sequence (P08581 25-1390): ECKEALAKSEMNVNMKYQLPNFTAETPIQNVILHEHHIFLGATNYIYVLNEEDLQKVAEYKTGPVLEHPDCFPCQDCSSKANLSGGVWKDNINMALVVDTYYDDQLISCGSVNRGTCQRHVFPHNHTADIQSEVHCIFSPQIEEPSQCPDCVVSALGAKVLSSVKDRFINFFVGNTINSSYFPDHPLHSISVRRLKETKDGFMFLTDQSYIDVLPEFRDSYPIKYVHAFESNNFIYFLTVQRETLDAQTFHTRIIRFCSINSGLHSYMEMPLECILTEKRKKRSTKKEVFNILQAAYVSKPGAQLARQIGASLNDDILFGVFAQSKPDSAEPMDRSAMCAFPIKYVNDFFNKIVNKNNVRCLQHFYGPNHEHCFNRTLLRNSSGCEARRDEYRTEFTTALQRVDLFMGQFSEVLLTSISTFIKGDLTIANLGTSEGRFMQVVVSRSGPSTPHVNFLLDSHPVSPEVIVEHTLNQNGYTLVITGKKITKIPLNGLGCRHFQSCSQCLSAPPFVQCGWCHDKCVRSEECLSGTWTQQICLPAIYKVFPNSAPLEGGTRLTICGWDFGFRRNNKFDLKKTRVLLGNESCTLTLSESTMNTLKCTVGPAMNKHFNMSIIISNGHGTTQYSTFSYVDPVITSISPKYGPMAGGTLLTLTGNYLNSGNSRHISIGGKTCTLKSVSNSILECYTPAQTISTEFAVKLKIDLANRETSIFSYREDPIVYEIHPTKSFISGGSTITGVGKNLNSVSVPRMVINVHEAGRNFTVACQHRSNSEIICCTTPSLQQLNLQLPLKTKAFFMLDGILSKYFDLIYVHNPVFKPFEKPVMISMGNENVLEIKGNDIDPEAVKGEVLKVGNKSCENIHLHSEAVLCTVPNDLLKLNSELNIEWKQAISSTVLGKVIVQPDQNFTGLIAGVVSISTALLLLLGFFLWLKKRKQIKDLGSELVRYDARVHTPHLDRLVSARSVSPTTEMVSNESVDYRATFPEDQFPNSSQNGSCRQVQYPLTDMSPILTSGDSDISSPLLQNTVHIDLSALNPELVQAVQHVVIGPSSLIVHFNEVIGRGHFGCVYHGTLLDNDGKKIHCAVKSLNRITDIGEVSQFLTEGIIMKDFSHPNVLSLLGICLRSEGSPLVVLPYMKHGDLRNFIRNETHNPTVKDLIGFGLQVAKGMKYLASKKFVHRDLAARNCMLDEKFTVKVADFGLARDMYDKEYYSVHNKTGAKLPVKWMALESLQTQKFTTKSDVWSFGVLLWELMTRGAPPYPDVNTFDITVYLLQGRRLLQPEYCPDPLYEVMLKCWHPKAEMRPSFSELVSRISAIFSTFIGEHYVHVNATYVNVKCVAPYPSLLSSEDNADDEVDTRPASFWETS
T2 sequence (P52333 822-1111 limits assumed, species assumed): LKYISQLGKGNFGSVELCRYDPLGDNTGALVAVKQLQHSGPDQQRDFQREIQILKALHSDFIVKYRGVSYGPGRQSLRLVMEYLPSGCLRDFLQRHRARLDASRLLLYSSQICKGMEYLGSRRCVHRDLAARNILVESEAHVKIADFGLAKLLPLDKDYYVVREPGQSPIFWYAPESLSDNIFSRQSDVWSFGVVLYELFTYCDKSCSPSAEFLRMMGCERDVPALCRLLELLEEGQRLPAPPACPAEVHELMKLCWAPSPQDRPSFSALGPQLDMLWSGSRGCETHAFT
Sequence of CAMK1A (Q14012 whole entry): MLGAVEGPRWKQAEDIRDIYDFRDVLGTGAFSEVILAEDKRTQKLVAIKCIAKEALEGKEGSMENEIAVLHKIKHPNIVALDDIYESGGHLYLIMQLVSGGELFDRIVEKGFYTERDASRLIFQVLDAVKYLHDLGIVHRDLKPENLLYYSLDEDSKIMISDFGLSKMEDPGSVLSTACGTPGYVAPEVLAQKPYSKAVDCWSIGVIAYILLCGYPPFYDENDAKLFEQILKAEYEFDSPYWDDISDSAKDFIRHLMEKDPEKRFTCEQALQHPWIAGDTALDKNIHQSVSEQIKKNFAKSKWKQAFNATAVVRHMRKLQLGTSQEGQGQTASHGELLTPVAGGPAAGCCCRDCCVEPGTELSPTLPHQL
T1 sequence (P07333 20-972): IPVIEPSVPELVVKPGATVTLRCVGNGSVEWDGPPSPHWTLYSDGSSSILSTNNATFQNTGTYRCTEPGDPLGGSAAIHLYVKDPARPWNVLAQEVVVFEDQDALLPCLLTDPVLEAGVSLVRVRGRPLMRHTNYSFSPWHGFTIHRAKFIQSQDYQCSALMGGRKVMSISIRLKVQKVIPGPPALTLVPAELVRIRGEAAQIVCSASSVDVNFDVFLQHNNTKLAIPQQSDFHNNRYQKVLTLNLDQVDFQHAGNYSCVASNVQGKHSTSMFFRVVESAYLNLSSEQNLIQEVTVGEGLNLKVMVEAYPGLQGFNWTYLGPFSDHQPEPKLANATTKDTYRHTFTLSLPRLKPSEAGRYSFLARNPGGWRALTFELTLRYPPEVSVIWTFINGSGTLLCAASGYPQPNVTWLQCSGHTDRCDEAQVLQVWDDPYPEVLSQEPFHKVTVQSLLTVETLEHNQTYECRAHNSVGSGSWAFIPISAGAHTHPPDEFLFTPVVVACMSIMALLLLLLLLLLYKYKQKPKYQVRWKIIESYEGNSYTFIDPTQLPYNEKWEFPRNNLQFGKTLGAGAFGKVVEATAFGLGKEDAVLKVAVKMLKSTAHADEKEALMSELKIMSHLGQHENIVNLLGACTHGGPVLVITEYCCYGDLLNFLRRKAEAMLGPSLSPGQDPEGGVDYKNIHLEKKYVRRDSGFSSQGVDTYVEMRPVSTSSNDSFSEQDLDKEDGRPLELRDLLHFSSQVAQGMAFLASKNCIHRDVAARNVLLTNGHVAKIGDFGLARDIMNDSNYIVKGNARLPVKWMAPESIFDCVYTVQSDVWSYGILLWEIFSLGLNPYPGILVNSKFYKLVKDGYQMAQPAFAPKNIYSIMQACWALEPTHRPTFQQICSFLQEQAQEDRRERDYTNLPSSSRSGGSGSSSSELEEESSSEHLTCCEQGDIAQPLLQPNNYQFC
Sequence of INSRR (P14616 27-1297, species assumed): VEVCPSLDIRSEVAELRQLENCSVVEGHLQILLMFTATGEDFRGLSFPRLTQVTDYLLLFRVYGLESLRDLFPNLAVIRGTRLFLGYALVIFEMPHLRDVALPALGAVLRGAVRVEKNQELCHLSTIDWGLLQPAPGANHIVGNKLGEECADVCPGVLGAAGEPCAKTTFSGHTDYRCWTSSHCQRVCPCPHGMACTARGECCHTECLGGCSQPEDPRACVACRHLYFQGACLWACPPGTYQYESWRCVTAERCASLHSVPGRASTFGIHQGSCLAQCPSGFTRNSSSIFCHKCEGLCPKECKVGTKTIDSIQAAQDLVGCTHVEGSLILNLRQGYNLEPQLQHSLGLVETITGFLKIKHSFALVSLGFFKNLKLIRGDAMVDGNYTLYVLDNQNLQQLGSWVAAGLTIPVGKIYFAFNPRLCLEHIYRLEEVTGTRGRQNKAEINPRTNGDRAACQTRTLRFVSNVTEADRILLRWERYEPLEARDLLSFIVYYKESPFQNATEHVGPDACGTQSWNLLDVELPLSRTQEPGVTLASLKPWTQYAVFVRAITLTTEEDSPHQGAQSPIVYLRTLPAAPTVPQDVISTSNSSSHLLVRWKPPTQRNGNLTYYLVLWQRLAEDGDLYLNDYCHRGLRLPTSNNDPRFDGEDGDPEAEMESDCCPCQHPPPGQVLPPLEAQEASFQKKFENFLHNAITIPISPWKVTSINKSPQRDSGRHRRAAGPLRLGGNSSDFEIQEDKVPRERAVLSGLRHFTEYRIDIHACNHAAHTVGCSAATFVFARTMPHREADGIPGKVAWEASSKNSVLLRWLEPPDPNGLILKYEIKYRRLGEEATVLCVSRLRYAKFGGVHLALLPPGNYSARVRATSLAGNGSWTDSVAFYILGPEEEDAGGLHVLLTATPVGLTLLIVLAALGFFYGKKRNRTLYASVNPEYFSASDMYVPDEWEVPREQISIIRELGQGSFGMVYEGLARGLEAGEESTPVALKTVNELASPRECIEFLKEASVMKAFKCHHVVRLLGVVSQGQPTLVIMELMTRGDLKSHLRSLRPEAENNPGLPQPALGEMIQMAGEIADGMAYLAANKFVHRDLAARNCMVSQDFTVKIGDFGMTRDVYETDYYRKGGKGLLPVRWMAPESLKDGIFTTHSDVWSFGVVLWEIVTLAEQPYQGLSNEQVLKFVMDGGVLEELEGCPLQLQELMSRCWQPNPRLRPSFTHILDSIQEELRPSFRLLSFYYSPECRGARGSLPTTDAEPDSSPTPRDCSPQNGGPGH
Sequence of PAK3 (O75914 whole entry, species assumed): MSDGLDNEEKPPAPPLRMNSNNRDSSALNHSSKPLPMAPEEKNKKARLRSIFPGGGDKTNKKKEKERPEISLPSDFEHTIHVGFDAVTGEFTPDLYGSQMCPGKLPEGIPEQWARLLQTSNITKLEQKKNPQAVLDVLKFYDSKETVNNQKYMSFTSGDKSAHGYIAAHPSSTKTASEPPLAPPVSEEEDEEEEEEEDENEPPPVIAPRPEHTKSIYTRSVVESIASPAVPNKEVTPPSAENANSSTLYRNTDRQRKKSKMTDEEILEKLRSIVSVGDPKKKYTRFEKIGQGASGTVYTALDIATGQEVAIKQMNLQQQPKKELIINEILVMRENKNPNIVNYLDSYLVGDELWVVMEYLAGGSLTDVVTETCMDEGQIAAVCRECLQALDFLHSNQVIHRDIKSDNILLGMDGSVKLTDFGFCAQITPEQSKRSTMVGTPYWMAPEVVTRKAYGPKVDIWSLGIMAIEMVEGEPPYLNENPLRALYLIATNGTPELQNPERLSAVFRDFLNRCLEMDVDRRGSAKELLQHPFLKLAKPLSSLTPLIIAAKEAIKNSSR

Row | SMILES | inhibition at 1 µM (AAK1) [%] | inhibition at 1 µM (CAMK1A) [%] | inhibition at 1 µM (CSF1R/FMS) [%] | inhibition at 1 µM (INSRR) [%] | inhibition at 1 µM (JAK3(JH1)) [%] | inhibition at 1 µM (LYNA) [%] | inhibition at 1 µM (MARK1) [%] | inhibition at 1 µM (MET) [%] | inhibition at 1 µM (MYLK3) [%] | inhibition at 1 µM (PAK3) [%] | inhibition at 1 µM (PHKG2) [%] | inhibition at 1 µM (PRKG1) [%]
1 | C=CC(=O)N1CCCC(c2c(F)cc(C(N)=O)c3[nH]c4c(c23)CCCCC4)C1 (single isomer, unassigned) [Compound 5-6] | -20.3 | 24.4 | 21.3 | 10.7 | 2 | -2.9 | 15.4 | 12 | 21.5 | 5.4 | 10.1 | -2.8
2 | C=CC(=O)N1CCC[C@@H](c2c(F)cc(C(N)=O)c3[nH]c4c(c23)CC2(CC4)CC2)C1 [Compound 6-2, (S)-5-(1-acryloylpiperidin-3-yl)-6-fluoro-1,2,4,9-tetrahydrospiro[carbazole-3,1′-cyclopropane]-8-carboxamide] | -15.7 | 34.5 | 24.9 | -54.1 | 12.5 | 36.4 | -63.9 | 18.9 | 9.9 | 10.2 | 64.5 | 0
3 | C=CC(=O)N1CCC[C@@H](c2c(F)cc(C(N)=O)c3[nH]c4c(c23)CCC4)C1 [Compound 10-2, (S)-8-(1-acryloylpiperidin-3-yl)-7-fluoro-1,2,3,4-tetrahydrocyclo-penta[b]indole-5-carboxamide] | -14.3 | 7.9 | 20.2 | -5.7 | 2.4 | 22.8 | -12.9 | 28.1 | 14.9 | 21.7 | 75 | -5.8
